ChEMBL document CHEMBL4043153, “Lead selection of antiparasitic compounds from a focused library of benzenesulfonyl derivatives of heterocycles” (Bioorg Med Chem Lett, 2017)
Activity calls are given as the source filed them. The rule behind the calls is not given here.

Tests used:
Leishmania donovani [1] = test: Antiparasitic activity against Leishmania donovani MHOM-ET-67/L82 axenic amastigotes after 72 hrs by Alamar blue assay; type: functional; conditions: MHOM-ET-67/L82, 72 h
Plasmodium falciparum [2] = test: (§1) Antiparasitic activity against intraerythrocytic form of chloroquine/pyrimethamine-resistant Plasmodium falciparum K1 infected in human RBC assessed as growth inhibition at 0.8 ug/ml preincubated for 48 hrs followed by [3H]-hypoxanthine addition measured after 24 hrs by liquid scintillation counting analysis relative to control; type: functional; conditions: read-out: GI
L6 [3] = test: Cytotoxicity against rat L6 cells assessed as cell viability after 72 hrs by Alamar blue assay; type: cell-based; conditions: L6, 72 h
[4] = Selectivity index, ratio of IC50 for rat L6 cells to IC50 for Leishmania donovani MHOM-ET-67/L82 axenic amastigotes; type: toxicity; conditions: read-out: Ratio IC50
Plasmodium falciparum [5] = test: Antiparasitic activity against intraerythrocytic form of chloroquine/pyrimethamine-resistant Plasmodium falciparum K1 infected in human RBC preincubated for 48 hrs followed by [3H]-hypoxanthine addition measured after 24 hrs by liquid scintillation counting analysis; type: functional
Leishmania donovani [6] = test: Antiparasitic activity against Leishmania donovani MHOM-ET-67/L82 axenic amastigotes assessed as growth inhibition at 4.8 ug/ml after 72 hrs by resazurin dye-based fluorometric analysis relative to control; type: functional; conditions: MHOM-ET-67/L82, 72 h, read-out: GI
Leishmania donovani [7] = test: Antiparasitic activity against Leishmania donovani MHOM-ET-67/L82 axenic amastigotes assessed as growth inhibition at 0.8 ug/ml after 72 hrs by resazurin dye-based fluorometric analysis relative to control; type: functional; conditions: MHOM-ET-67/L82, 72 h, read-out: GI
Trypanosoma cruzi [8] = test: Antiparasitic activity against Trypanosoma cruzi Tulahuen C4 intracellular amastigotes infected in rat L6 cells assessed as growth inhibition at 4.8 ug/ml after 96 hrs by CPRG/Nonidet reagent based photometric analysis relative to control; type: functional; conditions: Tulahuen C4, L6, 96 h, read-out: GI
Plasmodium falciparum [9] = test: as §1, with “4.8” for “0.8”; type: functional; conditions: read-out: GI
Trypanosoma cruzi [10] = test: Antiparasitic activity against Trypanosoma cruzi Tulahuen C4 intracellular amastigotes infected in rat L6 cells after 96 hrs by CPRG/Nonidet reagent based photometric analysis; type: functional, cell-based; conditions: Tulahuen C4, L6, 96 h
[11] = system: Trypanosoma brucei rhodesiense; test: Antiparasitic activity against Trypanosoma brucei rhodesiense STIB 900 trypomastigote bloodstream form assessed as growth inhibition at 4.8 ug/ml after 72 hrs by resazurin dye-based fluorometric analysis relative to control; type: functional; conditions: STIB 900, 72 h, read-out: GI
[12] = system: Trypanosoma brucei rhodesiense; test: Antiparasitic activity against Trypanosoma brucei rhodesiense STIB 900 trypomastigote bloodstream form assessed as growth inhibition at 0.8 ug/ml after 72 hrs by resazurin dye-based fluorometric analysis relative to control; type: functional; conditions: STIB 900, 72 h, read-out: GI
Trypanosoma cruzi [13] = test: Antiparasitic activity against Trypanosoma cruzi Tulahuen C4 intracellular amastigotes infected in rat L6 cells assessed as growth inhibition at 0.8 ug/ml after 96 hrs by CPRG/Nonidet reagent based photometric analysis relative to control; type: functional; conditions: Tulahuen C4, L6, 96 h, read-out: GI
[14] = Selectivity index, ratio of IC50 for rat L6 cells to IC50 for intraerythrocytic form of chloroquine/pyrimethamine-resistant Plasmodium falciparum K1 infected in human RBC; type: toxicity; conditions: read-out: Ratio IC50
[15] = Selectivity index, ratio of IC50 for rat L6 cells to IC50 for Trypanosoma cruzi Tulahuen C4 intracellular amastigotes infected in rat L6 cells; type: toxicity, cell-based; conditions: read-out: Ratio IC50
Leishmania donovani [16] = test: Antiparasitic activity against Leishmania donovani MHOM-ET-67/L82 axenic amastigotes; type: functional
Trypanosoma cruzi [17] = test: Antiparasitic activity against Trypanosoma cruzi Tulahuen C4 intracellular amastigotes infected in rat L6 cells; type: functional, cell-based
Plasmodium falciparum [18] = test: Antiparasitic activity against intraerythrocytic form of chloroquine/pyrimethamine-resistant Plasmodium falciparum K1; type: functional
L6 [19] = test: Cytotoxicity against rat L6 cells; type: cell-based

SMILES	IC50 (Leishmania donovani [1]) [µM]	inhibition of growth at 0.8 µg/mL (Plasmodium falciparum [2]) [%]	IC50 (L6 [3]) [µM]	selectivity ratio [4]	IC50 (Plasmodium falciparum [5]) [µM]	inhibition of growth at 4.8 µg/mL (Leishmania donovani [6]) [%]	inhibition of growth at 0.8 µg/mL (Leishmania donovani [7]) [%]	inhibition of growth at 4.8 µg/mL (Trypanosoma cruzi [8]) [%]	inhibition of growth at 4.8 µg/mL (Plasmodium falciparum [9]) [%]	IC50 (Trypanosoma cruzi [10]) [µM]	inhibition of growth at 4.8 µg/mL [11] [%]	inhibition of growth at 0.8 µg/mL [12] [%]	inhibition of growth at 0.8 µg/mL (Trypanosoma cruzi [13]) [%]	selectivity ratio [14]	selectivity ratio [15]	IC50 (Leishmania donovani [16]) [µM]	IC50 (Trypanosoma cruzi [17]) [µM]	IC50 (Plasmodium falciparum [18]) [µM]	IC50 (L6 [19]) [µM]	Activity (Plasmodium falciparum [5])
CC1Cc2ccccc2N1S(=O)(=O)c1ccc(C(C)(C)C)cc1 (configuration not stated)	1.53	52.8	12.2	7.95	1.5	100	53.3	100	99.9	6.98	6.4	0	7.7	8.1	1.74					
Cc1cc(C)c(C)c(S(=O)(=O)n2ccc3ccccc32)c1C	0.64	3.2	8.97	13.4		100	76.4	24.7	41.4		2.7	3.1	0.2							
O=S(=O)(c1ccc(Br)cc1)N1CCCc2ccccc21				0.34										1.11	0.53	21.4	13.8	6.65	7.36	
CC1Cc2ccccc2N1S(=O)(=O)c1ccc([N+](=O)[O-])cc1 (configuration not stated)		18	69.4			79.5	41.7	94.4	72.6	2.8	68.2	6.9	19.4		24.8					Active
O=[N+]([O-])c1ccc(S(=O)(=O)N2CCc3ccccc32)cc1		0	9.1			100	37.6	100	69.7	1.15	98	27.4	34.7		7.9					Active
Cc1cc(C)c(C)c(S(=O)(=O)N2c3ccccc3CC2C)c1C (configuration not stated)	0.23	5.5	6.62	28.8		100	77.2	75.2	76.7		0	0	0							
CC1CCc2ccccc2N1S(=O)(=O)c1cccc(C(F)(F)F)c1 (configuration not stated)		5.8	13.1			82.3	25.8	95.6	81.3	6.6	0	1.8	5.4		1.98					
COc1ccc(S(=O)(=O)N2c3ccccc3CC2C)cc1 (configuration not stated)		5.3	0.44			35	2.9	100	49.3	9.46	4.4	1.2	1.8		0.04					
CC1CCc2ccccc2N1S(=O)(=O)c1ccc(C(F)(F)F)cc1 (configuration not stated)		26.4	12.2			96	29	98.2	98.8	5.89	8.1	5.5	5.3		2					
Cc1cc(C)c(C)c(S(=O)(=O)N2c3ccccc3CCC2C)c1C (configuration not stated)	0.62	6.7	12.4	20		100	73.1	69.3	78		0	0	9.7							
Cc1cc(C)c(C)c(S(=O)(=O)N2CCc3ccccc3C2)c1C	0.76	4.5	3.6	4.8		100	63.3	23.1	18.8		1.7	2	1.8							
Cc1cc(C)c(C)c(S(=O)(=O)N2CCCc3ccccc32)c1C	0.36	3.1	2.71	7.53		100	94.2	60.3	56.5		3.7	2.7	15.5							
O=[N+]([O-])c1ccc(S(=O)(=O)N2CCCc3ccccc32)cc1														29.9	21.7	> 271	11.4	8.31	248	
CCCCCCCCCCCCCCCCOP(=O)([O-])OCC[N+](C)(C)C [MILTEFOSINE]	0.25					93.3	60.1													
O=S(=O)(c1ccc(Cl)cc1)N1CCCc2ccccc21				1.09										2.43	1.28	18.9	16	8.43	20.5	
Cc1cc(C)c(C)c(S(=O)(=O)N2CCc3ccccc32)c1C	0.73	3.3	12.6	17.2		100	61.3	31.4	41.8		5.7	5.5	10.3							
CC1Cc2ccccc2N1S(=O)(=O)c1ccc(Cl)cc1 (configuration not stated)		17.7	11.1			83.3	9	100	87.9	4.79	4	6.5	0		2.31					
CC1CCc2ccccc2N1S(=O)(=O)c1ccc(C(C)(C)C)cc1 (configuration not stated)	2.16	79.9	6.81	3.15	1.5	100	62	100	100	6.06	0	8.2	28	4.57	1.12					
